In series [1] the test system is Swiss TO mice. The experiment in a line: Voluntary food intake in fasted Swiss TO mice after i.p. injection. It counts as in vivo, mouse. As for the experimental part: Effects of CCK-8, Asp^1glucitol CCK-8, pGlu-Gln CCK-8 and other peptides on food intake in mice. Studies to evaluate the relative potencies of control CCK-8, Asp^1-glucitol CCK-8, pGlu-Gln CCK-8 and other peptides involved in regulation of feeding were performed using male Swiss TO mice (n=16) aged 7-12 weeks from a colony originating from the Behavioral and Biomedical Research Unit, University of Ulster. The animals were housed individually in an air-conditioned room at 22±2° C. with 12 h light/12 h dark cycle. Drinking water was supplied ad libitum and standard mouse maintenance diet (Trouw Nutrition, Cheshire, UK) was provided for various times as indicated below. The mice were habituated to a daily feeding period of 3 h/day by progressively reducing the feeding period over a 3 week period. On days 1-6, food was supplied from 10.00 to 20.00 h, days 7-14 from 10.00 to 16.00 h and days 15-21 food was restricted to 10.00 to 13.00 h. Body weight, food and water intake were monitored daily.
(§1) Mice which had been previously habituated to feeding for 3 h/day were administered a single i.p. injection of saline (0.9% w/v NaCl, 10 ml/kg) in the fasted state (10.00 h) and food was immediately returned following injection. Two days after the saline injection, mice were randomly allocated into groups of 7-8 animals which were administered a single i.p. injection (from 1 to 100 nmol/kg) of either CCK-8, structurally modified CCK-8 analogues and/or other peptide hormones (including, bombesin, leptin and islet amyloid polypeptide (IAPP)). Food intake was carefully monitored at 30 min intervals up to 180 min post injection. In one series of experiments, the ability of CCK-8 and Asp^1-glucitol CCK-8 to inhibit feeding activity was studied in overnight fasted adult obese hyperglycaemic (ob/ob) mice. All animal studies were done in accordance with the Animals (Scientific Procedures) Act 1986.
Statistical analysis. Groups of data are presented as means±SE. Statistical evaluation was performed using analysis of variance, least significant difference multiple comparisons test and Student's unpaired t-test as appropriate. Differences were considered to be significant if P<0.05.

Series [2] can be described thus: Effects of mouse serum on in vitro degradation of peptides (HPLC). It is filed as in vitro ADME. The method, then:
Effects of mouse serum on degradation of CCK-8, Asp^1glucitol CCK-8 and pGlu-Gln CCK-8. Serum (20 μl) from fasted Swiss TO mice was incubated at 37° C. with 10 μg of either native CCK-8, Asp^1-glucitol CCK-8 or pGlu-Gln CCK-8 for periods up to 2 h in a reaction mixture (final vol. 500 μl ) containing 50 mmol/l triethanolamine/HCl buffer pH 7.8. The reaction was stopped by addition of 5 μl of TFA and the final volume adjusted to 1.0 ml using 0.1% (v/v) TFA/water. Samples were centrifuged (13,000 g, 5 min) and the supernatant applied to a C-18 Sep-Pak cartridge (Waters/Millipore) which was previously primed and washed with 0.1% (v/v) TFA/water. After washing with 20 ml 0.12% TFA/water, bound material was released by elution with 2 ml of 80% (v/v) acetonitrile/water and concentrated using a Speed-Vac concentrator (AES 1000, Savant). The volume was adjusted to 1.0 ml with 0.12% (v/v) TFA/water and applied to a (250×4.6 mm) Vydac C-18 column pre-equilibrated with 0.12% (v/v) TFA/water at a flow rate of 1.0 ml/min. The concentration of acetonitrile in the eluting solvent was raised from 0 to 31.5% over 15 min, from 31.5 to 38.5% over 30 min, and from 38.5 to 70% over 5 min, using linear gradients monitoring eluting peaks at 206 nm.

In series [3] the test system is obese diabetic (ob/ob) mice. Nature of the series: Voluntary food intake in fasted obese diabetic (ob/ob) mice after i.p. injection. It is filed as in vivo, mouse. To be noted: 100 nmol/kg i.p. The method, then: as §1
FIG. 4 Effect of CCK-8, Asp^1-glucitol CCK-8 or saline on voluntary food intake in obese diabetic (ob/ob) mice. Saline or test agents were administered by i.p. injection (100 nmol/kg) to fasted obese diabetic (ob/ob) mice at time 0 immediately before introduction of food. Cumulative food intake was monitored at 30, 60, 90, 120, 150, 180, 210, 240, 270 and 300 min post injection. Values are means±SE of 8 observations. […]

For series [4] the following is noted: generally accepted; cited from earlier work.

Where two headings read alike, the source gives them in different places. Numbered stars: 1 amine (or outer) side, 2 acyl side, 3 side chain; on linkers, the order of the positions; unused ones are H or OH. Square brackets hold non-standard residues; d marks the D form. Ends that are not written are not given here. Peptide text beside a SMILES is read from it. X1 = O=C(O)C[C@@H](C(=O)[*:2])N(C[C@H](O)[C@@H](O)[C@H](O)[C@H](O)CO)[*:1]; sY = N[C@@H](Cc1ccc(OS(=O)(=O)O)cc1)C(=O)O

For the compound “glycated tGLP-1: control peptide with a glucitol adduct on the amino-terminus (glucitol-HAEGTFTSDVSSYLEGQAAKEFIAWLVKGR; ends and bridges not checked; UniProt P01275 98-127, looked up)”, the “induction of satiety (control experiment)” value in series [1] (control experiments in this test system) is “insufficient on its own to induce satiety”.
For the compound `CSCC[C@H](NC(=O)[C@H](Cc1ccc(OS(=O)(=O)O)cc1)NC(=O)[C@H](CC(=O)O)NC[C@H](O)[C@@H](O)[C@H](O)[C@H](O)CO)C(=O)NCC(=O)N[C@@H](Cc1c[nH]c2ccccc12)C(=O)N[C@@H](CCSC)C(=O)N[C@@H](CC(=O)O)C(=O)N[C@@H](Cc1ccccc1)C(N)=O` [Asp^1-glucitol CCK-8] (H-[X1][sY]MGWMDF-NH2), the “% Total CCK-like material” value in series [2] is on record as 100%. In series [2] (Swiss TO, mouse, serum, pH 7.8), the remaining at 1 h, 20 µg/ml worked out at 100% and the remaining at 2 h, 20 µg/ml amounted to 100%. Besides, the “potency at reducing food intake compared to equivalent dose of CCK-8” value in series [1] (100 nmol/kg i.p., FIG. 3) is “significantly more potent at reducing food intake at each time point (except at 30 min)”. In addition, the “sustained inhibition of cumulative food intake over 3 h compared to saline” value in series [1] (100 nmol/kg i.p., FIG. 3, up to 180 min) is “sustained over the 3 h post-treatment feeding period”. In addition, the “dose-response effects on food intake compared with CCK-8” value in series [1] (1 to 100 nmol/kg i.p., FIGS. 5-7) is “more prolonged effects at lower doses”. The “potency compared with native CCK-8” value in series [3] (FIG. 4) was “considerable more potent”. In series [3] (FIG. 4, up to 300 min), the “effect on voluntary food intake” value is listed as “significantly reduce voluntary food intake”.
As a reminder, the half-life is the time needed for the level to fall by half in the phase considered. With `CSCC[C@H](NC(=O)[C@H](Cc1ccc(OS(=O)(=O)O)cc1)NC(=O)[C@@H](N)CC(=O)O)C(=O)NCC(=O)N[C@@H](Cc1c[nH]c2ccccc12)C(=O)N[C@@H](CCSC)C(=O)N[C@@H](CC(=O)O)C(=O)N[C@@H](Cc1ccccc1)C(N)=O` [CCK-8, Asp^1Tyr^2(SO3H)-Met^3Gly^4Trp^5Met^6Asp^7Phe^8amide], the metabolised at 1 h, 20 µg/ml in series [2] (Swiss TO, pH 7.8, after 1 h incubation with mouse serum, read-out: % converted to CCK-8 fragments (HPLC peak area)) was 83.1%. Further, the metabolised at 2 h, 20 µg/ml in series [2] (Swiss TO, pH 7.8, after 2 h incubation with mouse serum, read-out: % converted to CCK-8 fragments (HPLC peak area)) is 100%. In series [2] (Swiss TO, pH 7.8, intact peptide peak, incubation time 1 h, mouse serum, 37° C., read-out: % Total CCK-like material), the remaining at 1 h, 20 µg/ml was found to be 16.9%. Besides, in series [2] (Swiss TO, pH 7.8, intact peptide peak, incubation time 2 h, mouse serum, 37° C., read-out: % Total CCK-like material), the remaining at 2 h, 20 µg/ml turned out to be 0%. The “% Total CCK-like material” value was found to be 100% in series [2] (intact peptide peak, incubation time 0 h, mouse serum, 37° C.); 39.3% in series [2] (peak CCK-8 fragment (B), incubation time 1 h); 58.7% in series [2] (peak CCK-8 fragment (B), incubation time 2 h); 43.8% in series [2] (peak CCK-8 fragment (C), incubation time 1 h); 29.5% in series [2] (peak CCK-8 fragment (C), incubation time 2 h); 11.8% in series [2] (peak CCK-8 fragment (D), incubation time 2 h). In series [4], the half-life is 1 to 2 min.

Source of the values: US7402663B2, “Modified peptide” (University of Ulster, priority 2001, dated 2008).
